Reference: ChEMBL document CHEMBL1765070, “Structure-based design of potent and selective 3-phosphoinositide-dependent kinase-1 (PDK1) inhibitors” (J Med Chem, 2011)

Columns and labels:
[1] = target: T1, 3-phosphoinositide-dependent protein kinase 1 (Homo sapiens, UniProt O15530); test: Inhibition of PDK1
T1 sequence (O15530 whole entry): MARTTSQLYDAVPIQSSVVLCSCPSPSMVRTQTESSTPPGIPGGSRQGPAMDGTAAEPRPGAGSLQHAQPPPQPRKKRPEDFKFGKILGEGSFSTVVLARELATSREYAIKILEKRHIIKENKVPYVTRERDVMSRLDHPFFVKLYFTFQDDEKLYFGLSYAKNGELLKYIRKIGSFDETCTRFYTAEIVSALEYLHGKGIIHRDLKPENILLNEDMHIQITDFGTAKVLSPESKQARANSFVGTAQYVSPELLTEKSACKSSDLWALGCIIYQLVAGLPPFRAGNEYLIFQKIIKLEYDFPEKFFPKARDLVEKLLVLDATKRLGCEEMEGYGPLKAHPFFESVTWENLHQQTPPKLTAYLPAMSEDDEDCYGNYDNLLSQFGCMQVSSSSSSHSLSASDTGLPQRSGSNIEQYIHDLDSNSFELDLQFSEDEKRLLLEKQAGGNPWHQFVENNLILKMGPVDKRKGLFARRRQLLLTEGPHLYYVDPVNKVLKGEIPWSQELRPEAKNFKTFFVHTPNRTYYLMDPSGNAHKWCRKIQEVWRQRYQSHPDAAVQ

[2] = target: T2, Aurora kinase A (Homo sapiens, UniProt O14965); test: Inhibition of aurora A
T2 sequence (O14965 whole entry): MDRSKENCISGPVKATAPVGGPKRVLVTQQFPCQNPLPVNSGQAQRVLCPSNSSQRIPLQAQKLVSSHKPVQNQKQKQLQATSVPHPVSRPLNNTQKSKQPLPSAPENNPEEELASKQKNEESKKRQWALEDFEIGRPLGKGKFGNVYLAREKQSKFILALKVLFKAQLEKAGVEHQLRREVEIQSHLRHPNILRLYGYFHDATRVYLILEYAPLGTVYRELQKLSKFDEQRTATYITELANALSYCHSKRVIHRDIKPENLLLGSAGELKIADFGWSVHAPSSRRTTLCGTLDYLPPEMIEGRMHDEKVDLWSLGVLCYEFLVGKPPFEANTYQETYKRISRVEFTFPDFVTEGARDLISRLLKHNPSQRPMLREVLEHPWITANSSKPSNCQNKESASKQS

[3] = target: Aurora kinase B (Homo sapiens, UniProt Q96GD4); test: Inhibition of aurora B
Sequence of Aurora kinase B (Q96GD4 whole entry): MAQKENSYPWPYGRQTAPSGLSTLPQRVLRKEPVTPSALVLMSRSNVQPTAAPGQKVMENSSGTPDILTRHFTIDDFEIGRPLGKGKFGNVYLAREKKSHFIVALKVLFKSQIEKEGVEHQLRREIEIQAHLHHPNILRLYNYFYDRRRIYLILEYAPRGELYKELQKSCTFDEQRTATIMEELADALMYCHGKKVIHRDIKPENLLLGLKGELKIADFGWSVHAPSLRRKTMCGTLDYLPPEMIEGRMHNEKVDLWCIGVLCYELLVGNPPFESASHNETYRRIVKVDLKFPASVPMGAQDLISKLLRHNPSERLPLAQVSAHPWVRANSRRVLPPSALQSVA

[4] = target: T3, TGF-beta receptor type-1 (Homo sapiens, UniProt P36897); test: Inhibition of ALK5; details: read-out: pIC50 (converted)
T3 sequence (P36897 whole entry): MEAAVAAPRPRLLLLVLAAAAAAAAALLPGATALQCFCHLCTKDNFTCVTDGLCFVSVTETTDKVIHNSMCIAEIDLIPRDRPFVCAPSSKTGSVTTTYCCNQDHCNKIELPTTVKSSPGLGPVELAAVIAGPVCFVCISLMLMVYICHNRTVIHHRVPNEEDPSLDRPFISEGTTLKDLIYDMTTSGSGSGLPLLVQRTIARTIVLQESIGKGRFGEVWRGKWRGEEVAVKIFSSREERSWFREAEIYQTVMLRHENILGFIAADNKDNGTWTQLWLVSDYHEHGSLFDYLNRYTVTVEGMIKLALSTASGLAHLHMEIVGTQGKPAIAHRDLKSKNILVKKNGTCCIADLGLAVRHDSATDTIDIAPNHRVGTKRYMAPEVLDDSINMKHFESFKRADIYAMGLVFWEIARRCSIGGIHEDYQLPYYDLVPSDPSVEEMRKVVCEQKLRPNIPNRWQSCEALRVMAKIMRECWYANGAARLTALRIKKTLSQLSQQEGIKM

[5] = target: Rho-associated protein kinase 1 (Homo sapiens, UniProt Q13464); test: Inhibition of ROCK1
Sequence of Rho-associated protein kinase 1 (Q13464 whole entry): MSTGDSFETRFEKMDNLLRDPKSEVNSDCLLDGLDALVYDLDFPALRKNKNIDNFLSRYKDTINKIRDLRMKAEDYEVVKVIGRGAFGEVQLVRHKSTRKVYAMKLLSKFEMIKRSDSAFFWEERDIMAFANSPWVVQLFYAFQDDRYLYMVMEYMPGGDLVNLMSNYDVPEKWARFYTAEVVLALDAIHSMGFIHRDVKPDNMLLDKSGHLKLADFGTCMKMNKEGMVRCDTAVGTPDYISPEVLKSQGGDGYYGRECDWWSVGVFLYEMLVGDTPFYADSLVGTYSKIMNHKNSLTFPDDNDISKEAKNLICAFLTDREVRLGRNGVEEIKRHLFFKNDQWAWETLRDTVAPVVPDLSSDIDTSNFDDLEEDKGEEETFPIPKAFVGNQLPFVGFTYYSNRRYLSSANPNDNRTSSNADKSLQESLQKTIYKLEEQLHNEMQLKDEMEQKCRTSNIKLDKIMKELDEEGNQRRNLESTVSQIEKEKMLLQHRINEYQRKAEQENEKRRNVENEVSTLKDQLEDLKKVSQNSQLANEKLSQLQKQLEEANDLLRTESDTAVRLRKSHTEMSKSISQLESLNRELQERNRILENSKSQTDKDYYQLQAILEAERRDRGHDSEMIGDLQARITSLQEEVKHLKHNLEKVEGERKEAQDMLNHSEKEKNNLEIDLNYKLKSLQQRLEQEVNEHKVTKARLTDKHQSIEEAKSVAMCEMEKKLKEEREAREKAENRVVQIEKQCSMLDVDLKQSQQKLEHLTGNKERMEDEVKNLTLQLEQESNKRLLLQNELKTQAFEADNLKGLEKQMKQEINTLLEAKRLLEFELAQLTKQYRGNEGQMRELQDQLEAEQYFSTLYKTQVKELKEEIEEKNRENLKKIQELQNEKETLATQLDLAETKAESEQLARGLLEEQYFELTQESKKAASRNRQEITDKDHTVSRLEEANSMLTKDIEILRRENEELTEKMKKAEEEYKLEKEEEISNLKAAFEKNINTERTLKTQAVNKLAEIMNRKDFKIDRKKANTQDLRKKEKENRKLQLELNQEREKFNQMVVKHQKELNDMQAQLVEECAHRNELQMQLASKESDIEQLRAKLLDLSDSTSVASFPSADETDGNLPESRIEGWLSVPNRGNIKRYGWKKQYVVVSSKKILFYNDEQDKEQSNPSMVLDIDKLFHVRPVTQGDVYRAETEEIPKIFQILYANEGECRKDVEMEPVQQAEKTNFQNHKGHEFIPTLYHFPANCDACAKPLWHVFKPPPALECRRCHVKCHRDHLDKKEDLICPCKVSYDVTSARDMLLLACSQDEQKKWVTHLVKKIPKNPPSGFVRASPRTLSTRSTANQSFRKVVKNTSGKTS

[6] = target: T1, 3-phosphoinositide-dependent protein kinase 1; test: Inhibition of PDK1-mediated AKT phosphorylation at Thr308 residue in human PC3 cells by ELISA; type: cell-based, PC-3
[7] = target: T1, 3-phosphoinositide-dependent protein kinase 1; test: Inhibition of PDK1-mediated RSK phosphorylation at Ser221 residue in human PC3 cells by ELISA; type: cell-based, PC-3
[8] = test system: K562; test: Antiproliferative activity against human K562 cells; type: functional, cell-based
[9] = test system: OCI-AML2; test: Antiproliferative activity against human OCI-AML2 cells; type: functional, cell-based
[10] = Antiproliferative activity against human OCI-AML3 cells; type: functional, cell-based; details: OCI-AML-3
[11] = test system: HEL; test: Antiproliferative activity against human HEL 92.1.7 cells; type: functional, cell-based
[12] = Antiproliferative activity against human F-36P cells; type: functional, cell-based

CNc1nc(-c2ccc3c(N)n[nH]c3c2)cc(N2C[C@@H](C(=O)Nc3ccccc3)CC[C@H]2C)n1
IC50 [1]: 0.00158 µM | IC50 [2]: > 10 µM | IC50 [3]: 2 µM | IC50 [4]: > 10 µM | IC50 [5]: 3.16 µM | IC50 [6]: 0.165 µM | IC50 [7]: 0.655 µM | IC50 [8]: 8 µM | IC50 [9]: 0.58 µM | IC50 [10]: 0.65 µM | IC50 [11]: 12 µM | IC50 [12]: 0.46 µM
